Structures can show the parent of a compound that is named as a salt.
How the values were obtained:
[1] = Boiling point of fragrance raw materials
[2] = LogP of fragrance raw materials
[3] = Example 2, fragrances for thermo boost performance, head range 230.1 a 300.0
[4] = Example 1, fragrances for long lasting performance, head range 1.00 a 230.0
[5] = Example 1, fragrances for long lasting performance, head range 1.00 a 3.00
[6] = Example 2, fragrances for thermo boost performance, head range 0.00 a 3.00

## c1ccc2[nH]ccc2c1 [INDOLE FF, INDOLE]
physchem
  logP: 2.05
[1]; [3]
  Boiling Point: 250 °C

## COc1ccc(C)cc1 [CRESYL METHYL ETHER PARA]
[1]; [4]
  Boiling Point: 170.8 °C

## CC/C=C\CC/C=C/C=O [NONADIENAL TRANS,CIS-2,6]
[1]; [4]
  Boiling Point: 208.7 °C

## O=COCCc1ccccc1 [PHENYLETHYL FORMATE]
[2]
  logP: 2.02
[1]; [4]
  Boiling Point: 217.3 °C

## O=CCc1ccccc1
[2]
  logP: 1.54
[1]; [4]
  Boiling Point: 201.5 °C

## CCCCCC(=O)OCC [ETHYL CAPROATE]
[1]; [4]
  Boiling Point: 170.1 °C

## CCCCCC(=O)CC [OCTANONE-3]
[1]; [4]
  Boiling Point: 163.6 °C

## COc1cc(C)ccc1O [METHYL GUAIACOL-4]
[1]; [3]
  Boiling Point: 230.4 °C

## CC(=O)OCCC(C)C [ISOAMYL ACETATE]
[2]
  logP: 2.26
[1]; [4]
  Boiling Point: 134.9 °C

## CC/C=C\CCOC(C)OCC (centres unmarked) [LEAF ACETAL]
[2]; [5]
  logP: 2.95
[1]; [4]
  Boiling Point: 201.4 °C

## Cc1ccc(O)cc1 [CRESOL PARA]
[2]; [5]
  logP: 2.06
[1]; [4]
  Boiling Point: 190.8 °C

## COc1ccc(C(C)=O)cc1 [ACETANISOLE CRYST., ACETANISOLE]
[1]; [4]
  Boiling Point: 229.5 °C

## CCCCC1CCCC(=O)O1 (centres unmarked) [NONALACTONE DELTA]
[2]; [6]
  logP: 2.08
[1]; [3]
  Boiling Point: 267 °C

## CC/C=C/CC/C=C/CO [NONADIENOL-2,6]
[2]; [6]
  logP: 2.87
[1]; [3]
  Boiling Point: 231.6 °C

## CCOC(=O)Cc1ccccc1 [ETHYL PHENYL ACETATE]
physchem
  logP: 2.57
[1]; [3]
  Boiling Point: 234.3 °C

## CC1(C)[C@@H]2CC[C@@]1(C)[C@H](O)C2 (racemic) [ISOBORNEOL]
[1]; [4]
  Boiling Point: 210 °C

## CC(C)(CO)Cc1ccccc1 [MUGUETALCOHOL]
[1]; [3]
  Boiling Point: 260.6 °C

## CC/C=C\CCOC(C)=O [HEXENYL ACETATE CIS-3]
[1]; [4]
  Boiling Point: 176.6 °C

## COC(=O)c1ccccc1 [METHYL BENZOATE]
[2]
  logP: 1.83
[1]; [4]
  Boiling Point: 195.9 °C

## CCCC1CCC(=O)O1 (centres unmarked) [HEPTALACTONE GAMMA]
[2]; [6]
  logP: 1.09
[1]; [3]
  Boiling Point: 230.3 °C

## CC/C=C\CCOC(=O)OC [LEAFOVERT®]
[2]; [5]
  logP: 2.47
[1]; [4]
  Boiling Point: 213 °C

## COC(Cc1ccccc1)OC
[2]
  logP: 1.93
[1]; [4]
  Boiling Point: 219.8 °C

## CCCCCOC(C)=O [AMYL ACETATE N]
[1]; [4]
  Boiling Point: 148.4 °C

## CCCC1CCCC(=O)O1 (centres unmarked) [OCTALACTONE DELTA]
[1]; [3]
  Boiling Point: 250 °C

## COc1ccc(C=O)cc1 [ANISIC ALDEHYDE PURE, ANISIC ALDEHYDE]
[1]; [4]
  Boiling Point: 221.6 °C

## CCCC(=O)OCC [ETHYL BUTYRATE]
[2]
  logP: 1.85
[1]; [4]
  Boiling Point: 125.8 °C

## CCOC(=O)CC [ETHYL PROPIONATE]
[2]
  logP: 1.36
[1]; [4]
  Boiling Point: 102.3 °C

## CC12CCC(C1)C(C)(C)C2O (centres unmarked) [FENCHOL]
[1]; [4]
  Boiling Point: 210 °C

## CCCCOC(C)=O [BUTYL ACETATE]
[2]
  logP: 1.85
[1]; [4]
  Boiling Point: 125.8 °C

## CCc1occc(=O)c1O [ETHYL MALTOL]
[2]; [6]
  logP: 0.3
[1]; [3]
  Boiling Point: 283.4 °C

## CC(=O)c1nccs1 [ACETYL THIAZOLE-2]
[1]; [4]
  Boiling Point: 209 °C

## MENTHONE/ISOMENTHONE [MENTHONE/ISOMENTHONE RAC.]
[2]; [5]
  logP: 2.87
[1]; [4]
  Boiling Point: 213 °C

## CC(=O)CCC=C(C)C [METIL-6-HEPTEN-5-ONA-2 SUPRA, METIL-6-HEPTEN-5-ONA-2]
[1]; [4]
  Boiling Point: 164.4 °C

## MENTHONE L/ISOMENTHONE D
[2]; [5]
  logP: 2.87
[1]; [4]
  Boiling Point: 213 °C

## O=Cc1ccccc1 [BE[…], BENZALDEHYDE]
physchem
  logP: 1.71
[1]; [4]
  Boiling Point: 181.2 °C

## COc1nccnc1C(C)C [ISOPROPYL METHOXYPYRAZINE-2,3]
[1]; [4]
  Boiling Point: 217.8 °C

## COC(=O)c1ccccc1O [METHYL SALICYLATE PF, METHYL SALICYLATE]
[2]
  logP: 2.6
[1]; [3]
  Boiling Point: 252.2 °C

## ISOOCTANONE
[2]; [5]
  logP: 2.15
[1]; [4]
  Boiling Point: 150.5 °C

## CC(=O)OCC(C)C [ISOBUTYL ACETATE]
[1]; [4]
  Boiling Point: 111.7 °C

## Cc1csc(C(C)C)n1 [ISOPROPYL METHYL THIAZOLE-2,4]
[1]; [4]
  Boiling Point: 198 °C

## CCOC(=O)c1ccccc1 [ETHYL BENZOATE]
physchem
  logP: 2.32
[1]; [4]
  Boiling Point: 215.6 °C

## CC(=O)OC(C)c1ccccc1 (centres unmarked) [STYRALYL ACETATE]
[1]; [4]
  Boiling Point: 223.1 °C

## CC1=CC(C)C(C=O)CC1 (centres unmarked) [VERTOCITRAL]
[1]; [4]
  Boiling Point: 200.5 °C

## COC(=O)c1ccccc1N [METHYL ANTHRANILATE (=130085), METHYL ANTHRANILATE]
physchem
  logP: 2.26
[1]; [3]
  Boiling Point: 263.6 °C

## C=CCOC(=O)COC1CCCCC1 [CYCLOGALBANAT®]
[1]; [3]
  Boiling Point: 254.9 °C

## CCCCC1CCC(=O)O1 (centres unmarked) [OCTALACTONE GAMMA]
[1]; [3]
  Boiling Point: 248.4 °C

## CCCCCCC1CCC(=O)O1 (centres unmarked) [DECALACTONE GAMMA]
[2]; [6]
  logP: 2.57
[1]; [3]
  Boiling Point: 281.7 °C

## COC(OC)C(C)c1ccccc1 (centres unmarked) [HYDRATROPIC ALDEHYDE DIMETH.ACET]
[1]; [4]
  Boiling Point: 227.2 °C

## CCOc1cc(COC)ccc1O [METHYL DIANTILIS]
[2]; [6]
  logP: 1.61
[1]; [3]
  Boiling Point: 282.4 °C

## CC(=O)OCC=C(C)C [PRENYL ACETATE]
[2]
  logP: 2.18
[1]; [4]
  Boiling Point: 149.2 °C

## C=CCOC(=O)COCCC(C)C [ALLYL AMYL GLYCOLATE]
[1]; [4]
  Boiling Point: 217.7 °C

## CCOc1cc(C=O)ccc1O [ETHYL VANILLIN]
physchem
  logP: 1.55

## CC1=CC(C)C(C=O)CC1 (centres unmarked) [LIGUSTRAL]
[1]; [4]
  Boiling Point: 200.5 °C

## CC(=O)C1CCCC(C)(C)C1 (centres unmarked) [HERBAC]
[1]; [4]
  Boiling Point: 197.4 °C

## CCOC(=O)COc1ccccc1 [ETHYL PHENOXY ACETATE]
[1]; [3]
  Boiling Point: 252.8 °C

## CC(=O)c1ccccc1 [ACETOPHENONE]
[1]; [4]
  Boiling Point: 189.8 °C

## CC(CC=O)c1ccccc1 (centres unmarked) [TRIFERNAL]
[2]; [5]
  logP: 2.45
[1]; [4]
  Boiling Point: 228.4 °C

## O=COCc1ccccc1 [BENZYL FORMATE]
[2]
  logP: 1.53
[1]; [4]
  Boiling Point: 197.8 °C

## CC(=O)OCc1ccccc1 [BENZYL ACETATE]
[1]; [4]
  Boiling Point: 215.6 °C

## CC(=O)c1ccc(C)cc1 [METHYL ACETOPHENONE PARA]
[2]; [5]
  logP: 2.22
[1]; [4]
  Boiling Point: 209.7 °C

## CC=Cc1ccc(O)c(OC)c1 [ISOEUGENOL]
[2]
  logP: 2.65
[1]; [3]
  Boiling Point: 270.6 °C

## COc1nccnc1CC(C)C [ISOBUTYL METHOXYPYRAZINE-3,2]
[1]; [3]
  Boiling Point: 236.5 °C

## O=c1ccc2ccccc2o1 [COUMARIN]
[1]; [3]
  Boiling Point: 290.7 °C

## CCCCCCC(C)=O [OCTANONE-2]
[1]; [4]
  Boiling Point: 163.6 °C

## COc1cc(C=O)ccc1O [VANILLIN]
[2]
  logP: 1.05
[1]; [3]
  Boiling Point: 274.3 °C

## CCCCCC1CCCC(=O)O1 (centres unmarked) [DECALACTONE DELTA]
[2]; [6]
  logP: 2.57
[1]; [3]
  Boiling Point: 283.2 °C

## CC(=O)OC1CCCCC1 [CYCLOHEXYL ACETATE]
[2]
  logP: 2.64
[1]; [4]
  Boiling Point: 179.4 °C

## COC(=O)Cc1ccccc1 [METHYL PHENYLACETATE]
physchem
  logP: 2.08
[1]; [4]
  Boiling Point: 215.6 °C

## CCC/C=C/C=O [HEXENAL TRANS-2]
[2]; [5]
  logP: 1.58
[1]; [4]
  Boiling Point: 139.2 °C

## CCCCCC#CC(=O)OC [METHYL HEPTIN CARBONATE]
[2]; [5]
  logP: 2.6
[1]; [4]
  Boiling Point: 205.3 °C

## CCCCCCCC=O [ALDEHYDE C 8]
[2]; [5]
  logP: 2.78
[1]; [4]
  Boiling Point: 176 °C

## O=Cc1ccc2c(c1)OCO2 [HELIOTROPIN]
[2]; [6]
  logP: 1.77
[1]; [3]
  Boiling Point: 257 °C

## CCCCCC1CCC(=O)O1 (centres unmarked) [ALDEHYDE C18 SO-CALLED]
[1]; [3]
  Boiling Point: 265.5 °C

## OCCc1ccccc1 [PHENYLETHYL ALCOHOL BA FREE, PHENYLETHYL ALCOHOL]
[2]
  logP: 1.57
[1]; [4]
  Boiling Point: 224.9 °C

## CCCCCC(=O)OC [METHYL CAPROATE]
[2]
  logP: 2.34
[1]; [4]
  Boiling Point: 148.4 °C

## CCCCCCOC(C)=O [HEXYL ACETATE]
[1]; [4]
  Boiling Point: 170.1 °C

## CCCC(C)C(=O)OCC (centres unmarked) [MANZANATE]
[2]; [5]
  logP: 2.76
[1]; [4]
  Boiling Point: 157.1 °C

Reference: patent US20220183937A1, “METHOD FOR IMPROVING THE PERFORMANCE OF A FRAGRANCE OR A FRAGRANCE MIXTURE” (SYMRISE AG, priority 2019, published 2022)
